Test results: US20120122727A1, “IN VITRO METHOD FOR PREDICTING WHETHER A COMPOUND IS GENOTOXIC IN VIVO” (priority 2009, published 2012)

Columns and labels:
[1] = tested on: primary mouse hepatocytes
[2] = tested on: primary mouse hepatocytes; test: Gene expression (Affymetrix Mouse Genome 430 2.0) in primary mouse hepatocytes, true vs false GTX, 24 h and 48 h; details: log2, corrected for vehicle control

c1ccc2c(c1)cc1ccc3cccc4ccc2c1c34 [BaP, Benzo(a)pyrene]
Gene expression data AF204959 (Cyp3a25 /// LOC622249) [1]: 0.3057
Gene expression data AF000969 (Cadps2) ([2]; 24 h average): −1.91
Gene expression data AF022072 (Grb10) ([2]; 24 h average): −0.2844
Gene expression data AF065917 (Lif) ([2]; 24 h average): 0.9227
Gene expression data AF297615 (Ggta1) ([2]; 24 h average): 1.735
Gene expression data AI594683 (Dmn) ([2]; 24 h average): 0.731
Gene expression data AI596632 (Ptprg /// LOC632664) ([2]; 24 h average): −1.8362
Gene expression data AI987929 (Ndrg1) ([2]; 24 h average): −0.3648
Gene expression data AK004419 (Fbxl17) ([2]; 24 h average): −1.001
Gene expression data AK005731 (1700007K13Rik) ([2]; 24 h average): 2.016
Gene expression data AK007766 (1810044A24Rik) ([2]; 24 h average): −1.288
Gene expression data AK007854 (1810053B23Rik) ([2]; 24 h average): 0.3514
Gene expression data AK009736 (Gpr137b /// LOC664862 /// LOC673335) ([2]; 24 h average): 0.2174
Gene expression data AK010447 (Smyd3) ([2]; 24 h average): −1.0413
Gene expression data AK014608 (4632434l11Rik) ([2]; 24 h average): 1.665
Gene expression data AK019979 (2610528E23Rik) ([2]; 24 h average): −0.6154
Gene expression data AV095209 (Mthfd1l) ([2]; 24 h average): −0.5885
Gene expression data AV141095 (1110033M05Rik) ([2]; 24 h average): −1.058
Gene expression data AV173571 (1700106N22Rik) ([2]; 24 h average): −1.123
Gene expression data AV219418 (Ldhb) ([2]; 24 h average): 0.2781
Gene expression data AV223474 (Zdhhc14) ([2]; 24 h average): −1.375
Gene expression data AV298304 (Homez) ([2]; 24 h average): 0.6204
Gene expression data AV327248 (Zfp365 /// LOC674611) ([2]; 24 h average): 1.102
Gene expression data AV377066 (9130221J18Rik) ([2]; 24 h average): 0.7572
Gene expression data AW240761 (Tbc1d5) ([2]; 24 h average): −0.703
Gene expression data AW543460 (Pard3) ([2]; 24 h average): −0.6194
Gene expression data AW543723 ([2]; 24 h average): 1.993
Gene expression data AW986246 (Maoa) ([2]; 24 h average): 0.1617
Gene expression data BB027848 (4732466D17Rik) ([2]; 24 h average): 0.0761
Gene expression data BB043558 (9230114K14Rik) ([2]; 24 h average): 1.247
Gene expression data BB275142 (AW456874) ([2]; 24 h average): 1.003
Gene expression data BB308836 (Ppm1l) ([2]; 24 h average): −0.6122
Gene expression data BB318221 (Zdhhc14) ([2]; 24 h average): −1.679
Gene expression data BB463610 (4632434l11Rik) ([2]; 24 h average): 2.144
Gene expression data BB526605 (Mipol1) ([2]; 24 h average): −0.7419
Gene expression data BB770528 (Rai2) ([2]; 24 h average): 0.6977
Gene expression data BB821363 (Scfd2) ([2]; 24 h average): −1.403
Gene expression data BC004827 (Psat1) ([2]; 24 h average): −0.04097
Gene expression data BC008626 (Icam1) ([2]; 24 h average): 0.8234
Gene expression data BC010462 (BC010462) ([2]; 24 h average): 0.6663
Gene expression data BC012247 (Dcxr) ([2]; 24 h average): 0.4451
Gene expression data BC012260 (Psmf1) ([2]; 24 h average): 0.3127
Gene expression data BC015270 (Hist2h3c2) ([2]; 24 h average): 0.7908
Gene expression data BC016073 (Cdkal1) ([2]; 24 h average): −0.6631
Gene expression data BC016265 (Ube2e2) ([2]; 24 h average): −0.751
Gene expression data BC019882 (Acaa1b) ([2]; 24 h average): 2.0133
Gene expression data BC025501 (Aaas) ([2]; 24 h average): 1.5389
Gene expression data BC025837 (Sbk1) ([2]; 24 h average): 0.3802
Gene expression data BC025915 (Cova1) ([2]; 24 h average): −0.5396
Gene expression data BC026422 (Tgm1) ([2]; 24 h average): 0.6019
Gene expression data BF719766 (Thyn1) ([2]; 24 h average): 0.9747
Gene expression data BG065754 (Ccng1) ([2]; 24 h average): 0.8607
Gene expression data BG066903 (Kif16b) ([2]; 24 h average): −0.133
Gene expression data BG069873 (Gnb1l) ([2]; 24 h average): 1.299
Gene expression data BG070887 (Gtdc1) ([2]; 24 h average): −0.9734
Gene expression data BG076151 (Ppm1d) ([2]; 24 h average): 0.728
Gene expression data BG261907 (Large) ([2]; 24 h average): −1.3429
Gene expression data BI651416 (Cdc42bpg) ([2]; 24 h average): 1.679
Gene expression data BI660702 (Ell3) ([2]; 24 h average): 1.3867
Gene expression data BM198879 (Ercc5) ([2]; 24 h average): 1.054
Gene expression data BM230508 (A030007D23Rik) ([2]; 24 h average): 1.297
Gene expression data NM_007987 (Fas) ([2]; 24 h average): 0.8287
Gene expression data NM_008522 (Ltf) ([2]; 24 h average): 1.114
Gene expression data NM_008576 (Abcc1) ([2]; 24 h average): 0.1024
Gene expression data NM_011176 (St14) ([2]; 24 h average): 1.508
Gene expression data NM_011316 (Saa4) ([2]; 24 h average): 0.1871
Gene expression data NM_012006 (Acot1) ([2]; 24 h average): 3.255
Gene expression data NM_013866 (Zfp385) ([2]; 24 h average): 0.776
Gene expression data NM_018770 (Igsf4a) ([2]; 24 h average): −0.8982
Gene expression data NM_021451 (Pmaip1) ([2]; 24 h average): 0.6364
Gene expression data NM_025770 (Atg10) ([2]; 24 h average): −1.053
Gene expression data NM_028803 (Gbe1) ([2]; 24 h average): −0.5416
Gene expression data NM_030697 (Ankrd47) ([2]; 24 h average): 1.4578
Gene expression data NM_053168 (Trim11) ([2]; 24 h average): 0.823
Gene expression data NM_134188 (Acot2) ([2]; 24 h average): 0.5856
Gene expression data Y15910 (Diap2) ([2]; 24 h average): −1.352
Gene expression AA561726 average ([2]; 48 h): −1.7432
Gene expression AF000969 average ([2]; 48 h): −2.251
Gene expression AF022072 average ([2]; 48 h): −1.018
Gene expression AF033112 average ([2]; 48 h): 1.4254
Gene expression AF055573 average ([2]; 48 h): −1.5573
Gene expression AF069954 average ([2]; 48 h): 0.8863
Gene expression AF297615 average ([2]; 48 h): 1.572
Gene expression AF335325 average ([2]; 48 h): 1.4875
Gene expression AI594683 average ([2]; 48 h): 1.466
Gene expression AI747296 average ([2]; 48 h): −2.124
